Experimental data reported in EP4778924A1 (Huons Co., Ltd., priority 2023, dated 2025).
Structures can show the parent of a compound that is named as a salt.

What follows are compounds tested against T1, Proton Pump (H^+,K^+-ATPase) (Sus scrofa, UniProt P19156) (assay: Inhibitory activity on proton pump (H+,K+-ATPase) activity, porcine gastric vesicles, malachite green readout). Conditions: porcine gastric vesicles, pH 6.5, 8 mM KCl, 0.2 mM ATP.
T1 construct: gastric vesicles were isolated from porcine stomachs; from tissue; host or cells: porcine stomach (gastric vesicles)
Assay type: biochemical
Protocol: Specifically, gastric vesicles were isolated from porcine stomachs, and the protein content of the vesicles was quantified using a BSA kit (Bio-Rad, 5000205). All reactions were performed in 96-well plates with a reaction volume of […] containing 100 ng of vesicles. 10 mM valinomycin and the test compound were added to reaction buffer (50 mM Tris-HEPES, 5 mM MgCl2, 8 mM KCl, pH 6.5) containing porcine gastric vesicles at various concentrations, and the mixture was incubated at 37°C for 30 minutes. DMSO or test compounds at different concentrations were added after diluting them to a final DMSO concentration of 0.1%. 0.2 mM adenosine triphosphate (ATP) was then added to the reaction buffer and incubated at 37°C for 20 minutes. The reaction was stopped with 0.2% Tween 20, followed by the addition of malachite green (Sigma Aldrich, MAK307) and incubation at room temperature for 30 minutes. The optical density (OD) value was measured at 620 nm using a microplate reader (Spectramax M5e, Molecular devices). The percent (%) inhibition was derived from the OD values of the control group and various concentrations of the test compounds. The IC50 of the test compounds was analyzed using nonlinear regression using the GraphPad Prism8 program using the % inhibition value at each concentration.

T1 sequence (P19156 2-1034 limits assumed): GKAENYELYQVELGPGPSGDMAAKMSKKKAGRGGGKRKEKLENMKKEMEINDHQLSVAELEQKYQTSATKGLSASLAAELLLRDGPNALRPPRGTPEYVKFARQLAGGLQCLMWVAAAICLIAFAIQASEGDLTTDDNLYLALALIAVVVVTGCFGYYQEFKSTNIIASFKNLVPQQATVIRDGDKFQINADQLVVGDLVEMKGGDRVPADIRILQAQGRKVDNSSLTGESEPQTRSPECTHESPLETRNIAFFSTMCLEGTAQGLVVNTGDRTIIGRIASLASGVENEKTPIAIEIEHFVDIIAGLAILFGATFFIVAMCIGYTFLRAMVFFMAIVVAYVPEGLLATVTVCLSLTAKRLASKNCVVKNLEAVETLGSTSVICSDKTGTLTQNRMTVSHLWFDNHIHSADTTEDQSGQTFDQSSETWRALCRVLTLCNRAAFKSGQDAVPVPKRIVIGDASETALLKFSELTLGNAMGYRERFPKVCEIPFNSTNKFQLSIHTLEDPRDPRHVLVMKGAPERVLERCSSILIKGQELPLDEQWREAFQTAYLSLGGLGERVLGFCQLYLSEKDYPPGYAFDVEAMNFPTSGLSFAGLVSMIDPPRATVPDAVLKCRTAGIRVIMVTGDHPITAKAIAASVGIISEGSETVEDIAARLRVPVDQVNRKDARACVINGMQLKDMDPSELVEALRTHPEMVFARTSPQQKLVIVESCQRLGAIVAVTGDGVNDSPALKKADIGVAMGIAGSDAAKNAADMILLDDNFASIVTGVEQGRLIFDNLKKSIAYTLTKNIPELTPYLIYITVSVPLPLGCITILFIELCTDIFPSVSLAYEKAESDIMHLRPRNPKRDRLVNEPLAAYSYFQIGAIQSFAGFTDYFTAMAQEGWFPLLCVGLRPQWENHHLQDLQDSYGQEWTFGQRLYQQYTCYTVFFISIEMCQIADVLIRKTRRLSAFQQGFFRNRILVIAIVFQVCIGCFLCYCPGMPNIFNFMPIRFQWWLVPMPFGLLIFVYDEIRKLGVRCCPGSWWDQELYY
T1 sequence (P18434 whole entry partner): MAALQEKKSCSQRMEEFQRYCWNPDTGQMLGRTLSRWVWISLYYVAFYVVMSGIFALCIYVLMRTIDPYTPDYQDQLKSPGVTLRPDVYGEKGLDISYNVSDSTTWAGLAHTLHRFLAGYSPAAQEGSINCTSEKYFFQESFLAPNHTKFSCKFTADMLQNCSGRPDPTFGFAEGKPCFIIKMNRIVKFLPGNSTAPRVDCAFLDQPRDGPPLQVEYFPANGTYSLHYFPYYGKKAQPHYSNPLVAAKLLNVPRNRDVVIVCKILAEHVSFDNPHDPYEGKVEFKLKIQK

Compared with `Cc1cccc(C)c1CNc1cc(NC(=O)NCCN)cn2c(C)c(C)nc12` [Example 37, 1-(2-aminoethyl)-3-(8-((2,6-dimethylbenzyl)amino)-2,3-dimethylimidazo[1,2-a]pyridin-6-yl)urea hydrochloride], `CCCNC(=O)Nc1cc(NCc2c(C)cccc2C)c2nc(C)c(C)n2c1` [Example 54] is higher in IC50: 50 to 100 nM for the first, 100 to 500 nM for the second.

`Cc1cccc(C)c1CNc1cc(NC(=O)CCC(=O)O)cn2c(C)c(C)nc12` [Example 38, 4-((8-((2,6-dimethylbenzyl)amino)-2,3-dimethylimidazo[1,2-a]pyridin-6-yl)amino)-4-oxobutanoic acid] and `Cc1cccc(C)c1CNc1cc(NC(=O)CCOCCC(=O)O)cn2c(C)c(C)nc12` [Example 39] cannot be ordered by IC50: greater than 500 nM for the first, greater than 500 nM for the second.

`CCOC(=O)CCC(=O)Nc1cc(NCc2c(C)cccc2C)c2nc(C)c(C)n2c1` [Example 40, ethyl 4-((8-((2,6-dimethylbenzyl)amino)-2,3-dimethylimidazo[1,2-a]pyridin-6-yl)amino)-4-oxobutanoate] and `CC(=O)NCC(=O)Nc1cc(NCc2c(C)cccc2C)c2nc(C)c(C)n2c1` [Example 52, 2-acetamido-N-(8-((2,6-dimethylbenzyl)amino)-2,3-dimethylimidazo[1,2-a]pyridin-6-yl)acetamide] fall in the same range of IC50: 100 to 500 nM for the first, 100 to 500 nM for the second.

`Cc1cccc(C)c1CNc1cc(NC(=O)CCOCCC(=O)OC(C)(C)C)cn2c(C)c(C)nc12` [Example 41] and `Cc1cccc(C)c1CNc1cc(NC(=O)CNC(=O)C(C)(C)C)cn2c(C)c(C)nc12` [Example 55, N-(2-((8-((2,6-dimethylbenzyl)amino)-2,3-dimethylimidazo[1,2-a]pyridin-6-yl)amino)-2-oxoethyl)pivalamide] cannot be ordered by IC50: greater than 500 nM for the first, greater than 500 nM for the second.

First: Cc1cccc(C)c1CNc1cc(NC(=O)N(C)C)cn2c(C)c(C)nc12 [Example 43, 3-(8-((2,6-dimethylbenzyl)amino)-2,3-dimethylimidazo[1,2-a]pyridin-6-yl)-1,1-dimethylurea hydrochloride]
Second: Cc1cccc(C)c1CNc1cc(NC(=O)CN(C)C)cn2c(C)c(C)nc12 [Example 53, 2-(dimethylamino)-N-(8-((2,6-dimethylbenzyl)amino)-2,3-dimethylimidazo[1,2-a]pyridin-6-yl)acetamide]
The IC50 of the first is lower: less than 50 nM for the first, 100 to 500 nM for the second. The first is the more potent here.

`CNC(=O)Nc1cc(NCc2c(C)cc(F)cc2C)c2nc(C)c(C)n2c1` [Example 44, 1-(8-((4-fluoro-2,6-dimethylbenzyl)amino)-2,3-dimethylimidazo[1,2-a]pyridin-6-yl)-3-methylurea hydrochloride] and `Cc1cc(F)cc(C)c1CNc1cc(NC(=O)NC2CC2)cn2c(C)c(C)nc12` [Example 50, 1-cyclopropyl-3-(8-((4-fluoro-2,6-dimethylbenzyl)amino)-2,3-dimethylimidazo[1,2-a]pyridin-6-yl)urea hydrochloride] cannot be ordered by IC50: less than 50 nM for the first, less than 50 nM for the second.

`COC(=O)CNC(=O)Nc1cc(NCc2c(C)cccc2C)c2nc(C)c(C)n2c1` [Example 46, hydrochloride] and `CNC(=O)CNC(=O)Nc1cc(NCc2c(C)cccc2C)c2nc(C)c(C)n2c1` [Example 47, 2-(3-(8-((2,6-dimethylbenzyl)amino)-2,3-dimethylimidazo[1,2-a]pyridin-6-yl)ureido)-N-methylacetamide hydrochloride] fall in the same range of IC50: 50 to 100 nM for the first, 50 to 100 nM for the second.

First: Cc1cccc(C)c1CNc1cc(NC(=O)NCC(=O)N(C)C)cn2c(C)c(C)nc12 [Example 48, 2-(3-(8-((2,6-dimethylbenzyl)amino)-2,3-dimethylimidazo[1,2-a]pyridin-6-yl)ureido)-N,N-dimethylacetamide hydrochloride]
Second: CC(=O)OCCNC(=O)Nc1cc(NCc2c(C)cccc2C)c2nc(C)c(C)n2c1 [Example 62, 2-(3-(8-((2,6-dimethylbenzyl)amino)-2,3-dimethylimidazo[1,2-a]pyridin-6-yl)ureido)ethyl acetate hydrochloride]
The IC50 of the first is lower: 50 to 100 nM for the first, 100 to 500 nM for the second.

First: Cc1cc(F)cc(C)c1CNc1cc(NC(=O)N(C)C)cn2c(C)c(C)nc12 [Example 49, 3-(8-((4-fluoro-2,6-dimethylbenzyl)amino)-2,3-dimethylimidazo[1,2-a]pyridin-6-yl)-1,1-dimethylurea hydrochloride]
Second: Cc1cc(F)cc(C)c1CNc1cc(NC(=O)[C@H](C)N)cn2c(C)c(C)nc12 [Example 63, (S)-2-amino-N-(8-((4-fluoro-2,6-dimethylbenzyl)amino)-2,3-dimethylimidazo[1,2-a]pyridin-6-yl)propanamide hydrochloride]
The IC50 of the first is lower: less than 50 nM for the first, 50 to 100 nM for the second.

`Cc1cc(F)cc(C)c1CNc1cc(NC(=O)N2CCC2)cn2c(C)c(C)nc12` [Example 51, N-(8-((4-fluoro-2,6-dimethylbenzyl)amino)-2,3-dimethylimidazo[1,2-a]pyridin-6-yl)azetidine-1-carboxamide citrate] and `Cc1cc(F)cc(C)c1CNc1cc(NC(=O)CN)cn2c(C)c(C)nc12.Cl` [Example 64, 2-amino-N-(8-((4-fluoro-2,6-dimethylbenzyl)amino)-2,3-dimethylimidazo[1,2-a]pyridin-6-yl)acetamide hydrochloride] cannot be ordered by IC50: less than 50 nM for the first, less than 50 nM for the second.

Compared with `Cc1cccc(C)c1CNc1cc(NC(=O)CNC(=O)C(F)F)cn2c(C)c(C)nc12` [Example 56, N-(2-((8-((2,6-dimethylbenzyl)amino)-2,3-dimethylimidazo[1,2-a]pyridin-6-yl)amino)-2-oxoethyl)-2,2-difluoroacetamide], `Cc1cccc(C)c1CNc1cc(NC(=O)CNC(=O)C(C)(F)F)cn2c(C)c(C)nc12` [Example 57, N-(2-((8-((2,6-dimethylbenzyl)amino)-2,3-dimethylimidazo[1,2-a]pyridin-6-yl)amino)-2-oxoethyl)-2,2-difluoropropanamide] is lower in IC50: greater than 500 nM for the first, 100 to 500 nM for the second.

`Cc1cccc(C)c1CNc1cc(NC(=O)CNC(=O)C2CC(O)C2)cn2c(C)c(C)nc12` (stereo not shown) [Example 58, N-(2-((8-((2,6-dimethylbenzyl)amino)-2,3-dimethylimidazo[1,2-a]pyridin-6-yl)amino)-2-oxoethyl)-3-hydroxycyclobutane-1-carboxamide] and `Cc1cccc(C)c1CNc1cc(NC(=O)CNC(=O)C2CC(F)C2)cn2c(C)c(C)nc12` (stereo not shown) [Example 59, N-(2-((8-((2,6-dimethylbenzyl)amino)-2,3-dimethylimidazo[1,2-a]pyridin-6-yl)amino)-2-oxoethyl)-3-fluorocyclobutane-1-carboxamide] fall in the same range of IC50: 100 to 500 nM for the first, 100 to 500 nM for the second.

Compared with `Cc1cccc(C)c1CNc1cc(NC(=O)N2CCOCC2)cn2c(C)c(C)nc12` [Example 61, N-(8-((2,6-dimethylbenzyl)amino)-2,3-dimethylimidazo[1,2-a]pyridin-6-yl)morpholine-4-carboxamide citrate], `Cc1cccc(C)c1CNc1cc(NC(=O)N2CC3(CCC3)C2)cn2c(C)c(C)nc12` [Example 66, N-(8-((2,6-dimethylbenzyl)amino)-2,3-dimethylimidazo[1,2-a]pyridin-6-yl)-2-azaspiro[3.3]heptane-2-carboxamide citrate] is higher in IC50: 50 to 100 nM for the first, 100 to 500 nM for the second. The first is the more potent here.

Compound `Cc1cc(F)cc(C)c1CNc1cc(NC(=O)[C@@H]2CCN2)cn2c(C)c(C)nc12` [Example 65, (S)-N-(8-((4-fluoro-2,6-dimethylbenzyl)amino)-2,3-dimethylimidazo[1,2-a]pyridin-6-yl)azetidine-2-carboxamide hydrochloride] has an IC50 of 50 to 100 nM.

Same assay, conditions: result in words

With `Cc1cc(F)cc(C)c1CNc1cc(NC(=O)CN)cn2c(C)c(C)nc12.Cl` [Example 64, 2-amino-N-(8-((4-fluoro-2,6-dimethylbenzyl)amino)-2,3-dimethylimidazo[1,2-a]pyridin-6-yl)acetamide hydrochloride] the “inhibitory activity against proton pump activity” value was “excellent inhibitory properties”.
